Assay results reported in ChEMBL document CHEMBL1201862, “PubChem BioAssay data set” (2004).
Calls of active or inactive are those of the source. Cut-off read from the data, not from the text of the source, for most assays here: actives have a measured EC50 and inactives only a lower limit.

Tests used:
[1] = test system: Streptococcus sp. 'group A'; assay: Streptococcus pyogenes SK(-)GAS viability under kanamycin – luminescence, BacTiterGlo, confirmation, counter-screen for streptokinase expression inhibitor project, dose response (AID 1900); format: functional, organism-based
Streptokinase A = target: T1, Streptokinase A (Streptococcus pyogenes serotype M1, UniProt P10520); assay: viability-normalized secreted streptokinase activity reduction – plasminogen activation absorbance, OD405, dose response (AID 1914); format: functional, Streptococcus pyogenes M1 GAS;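 note: secreted streptokinase activity via plasminogen activation per viability signal from cell pellet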
T1 sequence (P10520 whole entry): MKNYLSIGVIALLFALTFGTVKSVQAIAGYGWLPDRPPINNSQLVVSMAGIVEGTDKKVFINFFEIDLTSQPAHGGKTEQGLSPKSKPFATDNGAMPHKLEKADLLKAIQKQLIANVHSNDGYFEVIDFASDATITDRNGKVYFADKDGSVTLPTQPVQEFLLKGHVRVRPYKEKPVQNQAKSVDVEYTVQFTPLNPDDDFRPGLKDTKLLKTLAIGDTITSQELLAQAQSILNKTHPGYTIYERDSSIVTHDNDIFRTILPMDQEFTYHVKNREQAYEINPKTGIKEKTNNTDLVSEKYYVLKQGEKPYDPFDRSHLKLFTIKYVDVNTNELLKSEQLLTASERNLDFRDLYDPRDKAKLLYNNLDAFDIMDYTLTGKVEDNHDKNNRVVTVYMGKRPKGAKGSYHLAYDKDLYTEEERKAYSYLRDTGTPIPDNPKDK

Streptococcus = assay: GAS UMAA2166 growth inhibition – luminescence, BacTiterGlo, counter-screen for streptokinase expression inhibitor project, dose response (AID 1915); format: functional, organism-based; details: read-out: EC50;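 note: potency for reduction of bacterial viability or growth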
[2] = target: T2, Corticotropin-releasing factor receptor 2/Corticotropin-releasing factor-binding protein (Homo sapiens, UniProt P24387+Q13324); assay: activators of CRF receptor 2 with binding protein – uHTS hits, confirmation (AID 602473); format: functional; details: read-out: EC50_Mean
T2 sequence (Q13324 whole entry): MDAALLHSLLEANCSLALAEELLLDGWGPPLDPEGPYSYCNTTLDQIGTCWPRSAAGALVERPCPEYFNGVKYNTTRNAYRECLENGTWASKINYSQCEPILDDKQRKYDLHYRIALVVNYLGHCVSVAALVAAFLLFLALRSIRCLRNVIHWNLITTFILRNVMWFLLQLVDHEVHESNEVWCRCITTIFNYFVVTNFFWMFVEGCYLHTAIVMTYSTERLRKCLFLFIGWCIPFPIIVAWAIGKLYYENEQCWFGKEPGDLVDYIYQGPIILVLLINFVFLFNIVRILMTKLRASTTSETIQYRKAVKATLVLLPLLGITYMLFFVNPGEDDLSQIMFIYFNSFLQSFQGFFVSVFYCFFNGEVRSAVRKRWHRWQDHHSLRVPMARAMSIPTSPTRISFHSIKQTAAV
T2 sequence (P24387 whole entry): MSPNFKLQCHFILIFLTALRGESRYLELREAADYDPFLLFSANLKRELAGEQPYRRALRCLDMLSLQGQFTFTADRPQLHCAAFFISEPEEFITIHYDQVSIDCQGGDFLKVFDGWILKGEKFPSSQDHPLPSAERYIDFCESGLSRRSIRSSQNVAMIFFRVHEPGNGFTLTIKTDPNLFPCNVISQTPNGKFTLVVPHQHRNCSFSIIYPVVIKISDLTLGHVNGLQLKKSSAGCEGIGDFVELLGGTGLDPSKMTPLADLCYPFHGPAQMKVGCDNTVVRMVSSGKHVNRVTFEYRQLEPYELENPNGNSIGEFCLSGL

Cytochrome P450 2D6 = Cytochrome P450 2D6 (Homo sapiens, UniProt P10635);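 note: CYP2D6 member of a cytochrome P450 panel assay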
Sequence of Cytochrome P450 2D6 (P10635 whole entry): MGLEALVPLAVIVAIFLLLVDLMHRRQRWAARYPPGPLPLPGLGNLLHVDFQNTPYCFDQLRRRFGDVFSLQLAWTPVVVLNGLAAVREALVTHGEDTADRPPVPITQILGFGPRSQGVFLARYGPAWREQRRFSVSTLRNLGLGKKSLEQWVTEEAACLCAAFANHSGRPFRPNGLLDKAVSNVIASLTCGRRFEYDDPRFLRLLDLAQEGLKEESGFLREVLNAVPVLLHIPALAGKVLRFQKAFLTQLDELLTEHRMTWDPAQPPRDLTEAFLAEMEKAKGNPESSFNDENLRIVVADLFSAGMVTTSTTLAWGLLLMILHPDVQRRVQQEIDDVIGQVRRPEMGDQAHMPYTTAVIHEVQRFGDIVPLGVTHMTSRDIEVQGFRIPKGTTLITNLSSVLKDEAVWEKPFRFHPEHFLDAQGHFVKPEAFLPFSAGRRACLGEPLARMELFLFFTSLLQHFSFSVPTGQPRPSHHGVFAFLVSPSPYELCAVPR

Cytochrome P450 3A4 = Cytochrome P450 3A4 (Homo sapiens, UniProt P08684);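 note: CYP3A4 tested as one member of a cytochrome P450 panel screen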
Sequence of Cytochrome P450 3A4 (P08684 whole entry): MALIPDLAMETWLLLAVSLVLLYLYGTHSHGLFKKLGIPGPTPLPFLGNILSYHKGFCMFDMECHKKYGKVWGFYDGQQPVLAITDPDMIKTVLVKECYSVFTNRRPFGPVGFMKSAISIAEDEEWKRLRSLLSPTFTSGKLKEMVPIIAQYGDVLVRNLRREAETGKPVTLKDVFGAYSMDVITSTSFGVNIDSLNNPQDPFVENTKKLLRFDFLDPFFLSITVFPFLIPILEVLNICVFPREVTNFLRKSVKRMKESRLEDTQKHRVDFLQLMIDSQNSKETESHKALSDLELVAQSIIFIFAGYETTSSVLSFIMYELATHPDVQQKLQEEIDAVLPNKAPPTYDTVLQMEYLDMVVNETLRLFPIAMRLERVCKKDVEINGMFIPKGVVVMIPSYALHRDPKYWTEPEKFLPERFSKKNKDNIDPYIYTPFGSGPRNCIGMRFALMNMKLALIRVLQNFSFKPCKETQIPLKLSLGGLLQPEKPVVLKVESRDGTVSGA

[3] = Luminescence Cell-Based Dose Retest to Confirm Inhibitors of Cancer Stem Cells. [Related pubchem assays (depositor defined):AID2717, AID2721]; format: functional; details: Homo sapiens
[4] = target: T3, Replicative DNA helicase DnaB (Mycobacterium tuberculosis, UniProt P9WMR3); assay: DnaB intein splicing inhibitors, dose response, biochemical, cell-free fluorescence (AID 449749); format: functional
T3 sequence (P9WMR3 whole entry): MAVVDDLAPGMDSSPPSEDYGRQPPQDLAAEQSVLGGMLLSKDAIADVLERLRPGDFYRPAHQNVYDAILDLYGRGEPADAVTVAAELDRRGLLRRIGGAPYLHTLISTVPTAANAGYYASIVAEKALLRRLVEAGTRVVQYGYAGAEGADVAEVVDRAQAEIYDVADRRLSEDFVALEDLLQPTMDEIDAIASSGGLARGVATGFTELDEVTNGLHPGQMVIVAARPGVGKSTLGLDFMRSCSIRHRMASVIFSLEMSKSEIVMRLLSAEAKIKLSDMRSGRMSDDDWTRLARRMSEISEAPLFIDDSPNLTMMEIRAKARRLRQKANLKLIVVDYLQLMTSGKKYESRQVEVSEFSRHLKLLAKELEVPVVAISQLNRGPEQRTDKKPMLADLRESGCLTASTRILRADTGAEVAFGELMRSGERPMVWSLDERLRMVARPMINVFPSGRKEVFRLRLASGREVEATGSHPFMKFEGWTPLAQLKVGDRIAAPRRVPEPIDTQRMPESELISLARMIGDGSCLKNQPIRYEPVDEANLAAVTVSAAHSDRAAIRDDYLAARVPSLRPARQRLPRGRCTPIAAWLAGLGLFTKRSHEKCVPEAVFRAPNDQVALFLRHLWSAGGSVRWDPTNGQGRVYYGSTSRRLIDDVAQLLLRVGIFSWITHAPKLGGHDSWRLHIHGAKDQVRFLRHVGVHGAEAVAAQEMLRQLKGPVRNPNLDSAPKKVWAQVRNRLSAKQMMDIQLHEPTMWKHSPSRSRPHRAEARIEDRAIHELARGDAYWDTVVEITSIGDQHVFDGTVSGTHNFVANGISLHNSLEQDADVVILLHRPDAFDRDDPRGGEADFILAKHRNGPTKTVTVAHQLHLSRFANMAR

Protein RecA = target: T4, Protein RecA (Mycobacterium tuberculosis, UniProt P9WHJ3); assay: Fluorescence Cell-Free Homogeneous Dose Retest to Identify Inhibitors of RecA-Intein Splicing Activity. [Related pubchem assays (depositor defined):AID2097, AID2223, AID489010, AID492950]; format: functional
T4 sequence (P9WHJ3 whole entry): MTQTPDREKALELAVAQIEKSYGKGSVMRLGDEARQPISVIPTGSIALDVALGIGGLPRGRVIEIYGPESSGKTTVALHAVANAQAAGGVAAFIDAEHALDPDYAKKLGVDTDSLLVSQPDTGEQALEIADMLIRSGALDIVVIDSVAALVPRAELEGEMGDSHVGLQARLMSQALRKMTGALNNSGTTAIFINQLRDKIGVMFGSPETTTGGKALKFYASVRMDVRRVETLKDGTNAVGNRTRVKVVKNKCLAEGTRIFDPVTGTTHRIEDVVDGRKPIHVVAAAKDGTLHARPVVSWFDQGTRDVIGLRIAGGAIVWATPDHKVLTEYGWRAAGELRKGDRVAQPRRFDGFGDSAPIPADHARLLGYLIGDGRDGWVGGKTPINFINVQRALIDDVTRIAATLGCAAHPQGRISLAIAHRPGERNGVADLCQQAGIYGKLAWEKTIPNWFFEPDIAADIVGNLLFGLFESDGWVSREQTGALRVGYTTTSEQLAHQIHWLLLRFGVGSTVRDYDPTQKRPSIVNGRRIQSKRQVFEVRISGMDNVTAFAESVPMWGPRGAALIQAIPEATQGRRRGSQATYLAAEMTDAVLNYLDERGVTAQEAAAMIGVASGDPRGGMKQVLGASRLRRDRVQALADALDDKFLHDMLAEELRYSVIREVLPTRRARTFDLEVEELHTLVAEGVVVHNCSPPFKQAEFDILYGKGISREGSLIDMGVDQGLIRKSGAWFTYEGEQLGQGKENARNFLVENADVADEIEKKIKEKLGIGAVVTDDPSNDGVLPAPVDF

[5] = target: T5, Heat shock factor protein 1 (Mus musculus, UniProt P38532); assay: decrease of HSF1-responsive luciferase luminescence – cell-based, NIH3T3, dose retest, confirmation (AID 2382); format: functional;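 note: NIH3T3 fibroblasts with HSF1-driven luciferase reporter stressed by proteasome inhibitor MG132; luminescence from HSF1-driven luciferase expression after 8 hours of MG132 stress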
T5 sequence (P38532 whole entry): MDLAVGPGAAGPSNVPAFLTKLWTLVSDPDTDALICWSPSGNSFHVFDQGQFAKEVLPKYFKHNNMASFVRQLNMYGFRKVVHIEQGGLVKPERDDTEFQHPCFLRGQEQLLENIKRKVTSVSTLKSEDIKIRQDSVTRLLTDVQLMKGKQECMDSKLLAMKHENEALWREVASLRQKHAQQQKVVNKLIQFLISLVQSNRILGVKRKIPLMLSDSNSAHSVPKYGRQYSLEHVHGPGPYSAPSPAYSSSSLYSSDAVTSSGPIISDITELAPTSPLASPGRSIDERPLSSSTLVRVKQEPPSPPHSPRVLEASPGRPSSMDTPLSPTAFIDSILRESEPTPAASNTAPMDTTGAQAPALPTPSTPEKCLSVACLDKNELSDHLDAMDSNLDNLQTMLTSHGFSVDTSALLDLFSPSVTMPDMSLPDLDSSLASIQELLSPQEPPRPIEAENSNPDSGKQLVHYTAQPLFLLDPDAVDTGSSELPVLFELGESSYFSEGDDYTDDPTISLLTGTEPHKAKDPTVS

[6] = reduction of Shn3 3'UTR-driven luciferase in osteoblasts – cell-based, Clone20 osteoblasts, firefly luciferase, cherry-picked, dose response (AID 624132); format: functional;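 note: firefly luciferase luminescence from reporter carrying the Shn3 3'UTR in osteoblasts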

Row | SMILES | EC50 [1] | EC50 (Streptokinase A) | EC50 (Streptococcus) | AC50 (Cytochrome P450 2D6) | also measured
1 | c1ccc(-c2oc3ncnc(NCCCn4ccnc4)c3c2-c2ccccc2)cc1 | 23.4 µM (active) | > 150 µM (not active) | > 150 µM (not active) |  | 
2 | Cc1cccc(Cc2cnc(NC(=O)c3ccc(C)o3)s2)c1 | 16.6 µM (active) | > 150 µM (not active) | > 150 µM (not active) |  | 
3 | O=C(/C=C/c1ccco1)NC(=S)Nc1ccc(N2CCOCC2)c(Cl)c1 | 109 µM (active) | > 150 µM (not active) | 54.4 µM (active) |  | 
4 | CC(=O)c1c(C)c2c(n1CCN(C)C)CCCC2 |  |  |  |  | EC50 [2]: 2.74 µM (active)
5 | CN1CCN(c2ncc3nc(-c4ccccc4)c(=O)n(CCc4ccccc4)c3n2)CC1 |  |  |  | 39.8 µM (inconclusive) | 
6 | C[C@]1(CC(=O)O)O[C@H]2CCCCC[C@H]2O1.NCc1ccccc1 |  |  |  | 3.16 µM (inconclusive) | AC50 (Cytochrome P450 3A4): 0.251 µM (inconclusive)
7 | Cc1cc(C)c(-c2cc(NC(=O)COC(=O)c3ccc(CO)cc3)n(-c3ccccc3)n2)cc1C | 5.49 µM (active) | 48.4 µM (active) | 32.4 µM (active) |  | 
8 | Oc1nc(CN2CC=C(c3ccccc3)CC2)nc2scc(-c3ccccc3)c12 | 7.76 µM (active) | > 150 µM (not active) | 50.3 µM (active) |  | AC50 [3]: 2.56 µM (active)
9 | CCN(CC)S(=O)(=O)c1ccc(NN=C(C#N)C#N)cc1 |  |  |  |  | AC50 [4]: 5.03 µM (active); EC50 (Protein RecA): 15 µM (active)
10 | CCS(=O)(=O)c1ccc2oc(Nc3cc(C)cc(C)c3)nc2c1 |  |  |  | 25.1 µM (inconclusive) | AC50 (Cytochrome P450 3A4): 28.2 µM (inconclusive)
11 | Cn1c(-[n+]2c(-c3ccccc3)cc(-c3ccccc3)cc2-c2ccccc2)nc2c([N+](=O)[O-])cccc21 |  |  |  |  | AC50 [4]: 15.3 µM (active); EC50 (Protein RecA): 15.3 µM (active)
12 | O=C(C1CCC(=O)N1Cc1ccccc1Cl)N1CCN(c2cccc(Cl)c2)CC1 (centres undefined) |  |  |  | 14.1 µM (inconclusive) | AC50 (Cytochrome P450 3A4): 0.0355 µM (inconclusive)
13 | O=C(Nc1ccc(Cl)c(Cl)c1)N1CC=C(c2ccccc2)CC1 | 9.92 µM (active) | 11.9 µM (active) | 21 µM (active) |  | 
14 | CCOc1cc(C(c2c(C)n[nH]c2O)c2c(C)n[nH]c2O)cc(Br)c1OC |  |  |  |  | EC50 [5]: > 195 µM (not active); AC50 [4]: 0.417 µM (active); EC50 (Protein RecA): 0.231 µM (active)
15 | Cc1cc(NC(=O)CC2CCCC2)n(-c2nc3ccccc3[nH]2)n1 | 6.41 µM (active) | > 150 µM (not active) | > 150 µM (not active) |  | 
16 | Cn1c(=O)c(C(=O)COc2ccc(C#N)cc2)c(N)n(Cc2ccccc2)c1=O |  |  |  |  | EC50 [2]: 10.9 µM (active)
17 | COC(=O)[C@@]1(Cc2ccc(OC)cc2)[C@H]2c3cc(C(=O)N(C)C)n(Cc4ccc(C)o4)c3C[C@H]2CN1C(=O)c1ccccc1 |  |  |  | 39.8 µM (inconclusive) | 
18 | O=C(Nc1ccccc1)c1ccccc1NC(=O)C(F)(F)F |  |  |  |  | EC50 [2]: > 53 µM (inactive)
19 | CN(C)C(=O)c1cn(N(C)c2ncc(C(F)(F)F)cc2Cl)c(=O)c2ccccc12 |  |  |  | 25.1 µM (inconclusive) | AC50 (Cytochrome P450 3A4): 10 µM (inconclusive)
20 | Cc1onc(-c2ccccc2)c1C(=O)NCCc1c[nH]c2ccccc12 |  |  |  | 12.6 µM (inconclusive) | 
21 | COc1ccc2cc(C(=O)NCc3ccccc3)/c(=N/c3ccc(C(=O)O)cc3)oc2c1 | 10.2 µM (active) | > 150 µM (not active) | 22.4 µM (active) |  | 
22 | COc1ccc(C(=O)NNC(=O)c2cccc(S(=O)(=O)N3CCOCC3)c2)cc1 |  |  |  |  | AC50 [6]: 23.2 µM (active)
23 | C[C@]12CC[C@@H](O)C[C@@H]1CC[C@@H]1[C@@H]2CC[C@]2(C)C(=O)CC[C@@H]12 [ANDROSTERONE] |  |  |  |  | AC50 [6]: 40.1 µM (active)
24 | CNC(C)(C)Cc1ccccc1 [MEPHENTERMINE] |  |  |  | 10 µM (inconclusive) | 
